From US9125913B2, “Bcl-2-selective apoptosis-inducing agents for the treatment of cancer and immune diseases” (AbbVie Inc., priority 2008, dated 2015)

Test system: GST-Bcl-2
Assay: TR-FRET binding assay, Bcl-2
Details: TR-FRET Ki values
Summary of the method: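 Compounds serially diluted in DMSO from 50 μM (2× starting concentration, 10% DMSO), mixed with GST-tagged protein, F-Bak peptide probe and Tb-labeled antibody, incubated 3 h at room temperature.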

SMILES	Binding selectivity ratio (Bcl-XL Ki/Bcl-2 Ki)
CC1(C)CCC(CN2CCN(c3ccc(C(=O)NS(=O)(=O)c4ccc(NC5CCN(S(C)(=O)=O)CC5)c([N+](=O)[O-])c4)c(Oc4ccc5[nH]ccc5c4)c3)CC2)=C(c2ccc(Cl)cc2)C1 [EXAMPLE 335, 4-(4-{[2-(4-chlorophenyl)-4,4-dimethylcyclohex-1-en-1-yl]methyl}piperazin-1-yl)-2-(1H-indol-5-yloxy)-N-[(4-{[1-(methylsulfonyl)piperidin-4-yl]amino}-3-nitrophenyl)sulfonyl]benzamide]	>1508.2
CC1(C)CCC(CN2CCN(c3ccc(C(=O)NS(=O)(=O)c4cc(F)c(NCC5CCOCC5)cc4Cl)c(Oc4ccc5[nH]ccc5c4)c3)CC2)=C(c2ccc(Cl)cc2)C1 [EXAMPLE 379, N-({2-chloro-5-fluoro-4-[(tetrahydro-2H-pyran-4-ylmethyl)amino]phenyl}sulfonyl)-4-(4-{[2-(4-chlorophenyl)-4,4-dimethylcyclohex-1-en-1-yl]methyl}piperazin-1-yl)-2-(1H-indol-5-yloxy)benzamide]	>2.6
CC1(C)CCC(CN2CCN(c3ccc(C(=O)NS(=O)(=O)c4ccc(NCCN5CCCCC5=O)c([N+](=O)[O-])c4)c(Oc4ccc5[nH]ccc5c4)c3)CC2)=C(c2ccc(Cl)cc2)C1 [EXAMPLE 267, 4-(4-{[2-(4-chlorophenyl)-4,4-dimethylcyclohex-1-en-1-yl]methyl}piperazin-1-yl)-2-(1H-indol-5-yloxy)-N-[(3-nitro-4-{[2-(2-oxopiperidin-1-yl)ethyl]amino}phenyl)sulfonyl]benzamide]	>1453.3
CC1(C)CCC(CN2CCN(c3ccc(C(=O)NS(=O)(=O)c4ccc(NCc5cncs5)c([N+](=O)[O-])c4)c(Oc4ccc5[nH]ccc5c4)c3)CC2)=C(c2ccc(Cl)cc2)C1 [EXAMPLE 288, 4-(4-{[2-(4-chlorophenyl)-4,4-dimethylcyclohex-1-en-1-yl]methyl}piperazin-1-yl)-2-(1H-indol-5-yloxy)-N-({3-nitro-4-[(1,3-thiazol-5-ylmethyl)amino]phenyl}sulfonyl)benzamide]	>3730.9
CC1(C)CCC(CN2CCN(c3ccc(C(=O)NS(=O)(=O)c4ccc(OCCCS(C)(=O)=O)c([N+](=O)[O-])c4)c(Oc4cccc5[nH]ccc45)c3)CC2)=C(c2ccc(Cl)cc2)C1 [EXAMPLE 316, 4-(4-{[2-(4-chlorophenyl)-4,4-dimethylcyclohex-1-en-1-yl]methyl}piperazin-1-yl)-2-(1H-indol-4-yloxy)-N-({4-[3-(methylsulfonyl)propoxy]-3-nitrophenyl}sulfonyl)benzamide]	533.7
CN1CCN(CCNc2ccc(S(=O)(=O)NC(=O)c3ccc(N4CCN(Cc5ccccc5-c5ccc(Cl)cc5)CC4)cc3Oc3ccccc3)cc2[N+](=O)[O-])CC1 [Example 85, 4-{4-[(4′-chloro-1,1′-biphenyl-2-yl)methyl]piperazin-1-yl}-N-[(4-{[2-(4-methylpiperazin-1-yl)ethyl]amino}-3-nitrophenyl)sulfonyl]-2-phenoxybenzamide]	48.8
CC1(C)CCC(CN2CCN(c3ccc(C(=O)NS(=O)(=O)c4ccc(C(=O)NCC5CCOCC5)cc4)c(Oc4ccc5[nH]ccc5c4)c3)CC2)=C(c2ccc(Cl)cc2)C1 [EXAMPLE 308, 4-(4-{[2-(4-chlorophenyl)-4,4-dimethylcyclohex-1-en-1-yl]methyl}piperazin-1-yl)-2-(1H-indol-5-yloxy)-N-[(4-{[(tetrahydro-2H-pyran-4-ylmethyl)amino]carbonyl}phenyl)sulfonyl]benzamide]	>11.5
CC1(C)CCC(CN2CCN(c3ccc(C(=O)NS(=O)(=O)c4ccc(NC[C@H]5CC[C@@H](O)CC5)c([N+](=O)[O-])c4)c(Oc4ccc5[nH]ccc5c4)c3)CC2)=C(c2ccc(Cl)cc2)C1 [EXAMPLE 312, Cis-4-(4-{[2-(4-chlorophenyl)-4,4-dimethylcyclohex-1-en-1-yl]methyl}piperazin-1-yl)-N-[(4-{[(4-hydroxycyclohexyl)methyl]amino}-3-nitrophenyl)sulfonyl]-2-(1H-indol-5-yloxy)benzamide]	>1941.2
CN(C)CC(=O)N1CCO[C@H](CNc2ccc(S(=O)(=O)NC(=O)c3ccc(N4CCN(CC5=C(c6ccc(Cl)cc6)CC(C)(C)CC5)CC4)cc3Oc3cccc4[nH]cnc34)cc2[N+](=O)[O-])C1 [EXAMPLE 437, 2-(1H-benzimidazol-4-yloxy)-4-(4-{[2-(4-chlorophenyl)-4,4-dimethylcyclohex-1-en-1-yl]methyl}piperazin-1-yl)-N-{[4-({[(2R)-4-(N,N-dimethylglycyl)morpholin-2-yl]methyl}amino)-3-nitrophenyl]sulfonyl}benzamide]	51.4
CN(C)CC(=O)N1CCO[C@@H](COc2ncc(S(=O)(=O)NC(=O)c3ccc(N4CCN(CC5=C(c6ccc(Cl)cc6)CC(C)(C)CC5)CC4)cc3Oc3cccc4[nH]ncc34)cc2Cl)C1 [compound 426, N-[(5-chloro-6-{[(2R)-4-(N,N-dimethylglycyl)morpholin-2-yl]methoxy}pyridin-3-yl)sulfonyl]-4-(4-{[2-(4-chlorophenyl)-4,4-dimethylcyclohex-1-en-1-yl]methyl}piperazin-1-yl)-2-(1H-indazol-4-yloxy)benzamide]	604.2
O=C(NS(=O)(=O)c1ccc(OCC2CCOCC2)c([N+](=O)[O-])c1)c1ccc(N2CCN(Cc3ccc(C(F)(F)F)cc3-c3ccc(Cl)cc3)CC2)cc1Oc1ccc2[nH]ccc2c1 [EXAMPLE 340, 4-(4-{[4′-chloro-5-(trifluoromethyl)-1,1′-biphenyl-2-yl]methyl}piperazin-1-yl)-2-(1H-indol-5-yloxy)-N-{[3-nitro-4-(tetrahydro-2H-pyran-4-ylmethoxy)phenyl]sulfonyl}benzamide]	>86.9
CN(C)CCCNc1ccc(S(=O)(=O)NC(=O)c2ccc(N3CCN(CC4=C(c5ccc(Cl)cc5)CCC(C)(C)C4)CC3)cc2Oc2ccc3[nH]ccc3c2)cc1[N+](=O)[O-] [Example 51, 4-(4-{[2-(4-chlorophenyl)-5,5-dimethylcyclohex-1-en-1-yl]methyl}piperazin-1-yl)-N-[(4-{[3-(dimethylamino)propyl]amino}-3-nitrophenyl)sulfonyl]-2-(1H-indol-5-yloxy)benzamide]	62.1
CCN(CC)C1CCC(Nc2ccc(S(=O)(=O)NC(=O)c3ccc(N4CCN(CC5=C(c6ccc(Cl)cc6)CC(C)(C)CC5)CC4)cc3Oc3cccc4[nH]ccc34)cc2[N+](=O)[O-])CC1 (centres unmarked) [EXAMPLE 203, 4-(4-{[2-(4-chlorophenyl)-4,4-dimethylcyclohex-1-en-1-yl]methyl}piperazin-1-yl)-N-[(4-{[4-(diethylamino)cyclohexyl]amino}-3-nitrophenyl)sulfonyl]-2-(1H-indol-4-yloxy)benzamide]	139.5
COc1ccc(Nc2ccc(S(=O)(=O)NC(=O)c3ccc(N4CCN(CC5=C(c6ccc(Cl)cc6)CC(C)(C)CC5)CC4)cc3Oc3ccc4[nH]ccc4c3)cc2[N+](=O)[O-])cc1O [EXAMPLE 394, 4-(4-{[2-(4-chlorophenyl)-4,4-dimethylcyclohex-1-en-1-yl]methyl}piperazin-1-yl)-N-({4-[(3-hydroxy-4-methoxyphenyl)amino]-3-nitrophenyl}sulfonyl)-2-(1H-indol-5-yloxy)benzamide]	>263262.863980854
